These are literature values, as cited in patent US7713673B2, “Fixing liquid, toner fixing method, toner fixing device, image forming method, and image forming apparatus” (priority 2005, dated 2010).

Each structure is given as a SMILES string.

The conditions of the series: acute oral toxicity; given in brackets as a material property of the component.
By LD50 is commonly meant the dose at which mortality reaches 50%. For the molecule `CC(C)COC(=O)CCCCC(=O)OCC(C)C` [diisobutyl adipate], the LD50 was 12.8 g/kg.

As to `CCO` [ethanol], the median lethal dose (LD50) is 15 g/kg.

As for `CC(O)CO` (stereo not shown) [propylene glycol], the LD50 is given as 15 g/kg.

Turning to `CCCCOC(=O)CCCCCCCCC(=O)OCCCC` [dibutyl sebacate], the LD50 is 12.8 g/kg.

Regarding `CCCCCCCCCCCC(=O)OCC` [ethyl laurate], the LD50 is recorded as 5 g/kg.

For `CC(O)CCO` (stereo not shown) [1,3-butanediol], the LD50 is given as 10 g/kg.

In the case of `CCOCCOC(=O)CCC(=O)OCCOCC` [diethoxyethyl succinate], the LD50 was 5 g/kg.
